Laboratory results taken from patent publication US20030166001A1, “Toll-like receptor 3 signaling agonists and antagonists” (priority 2001, published 2003).
In the oligonucleotide strings, read from the 5' end, every base follows the letter of its sugar. An asterisk marks phosphorothioate; unmarked linkages are phosphodiester. Other units and linkages are bracketed, terminal groups are in braces. A string of capitals states the bases alone. d = 2'-deoxy (DNA)

Experiments:
murine TLR9 [1] = molecular target: T1, murine TLR9 (Mus musculus, UniProt Q9EQU3); test: 293 fibroblasts stably transfected with murine TLR9 and NF-κB-luciferase reporter, ODN stimulation; settings: for EC50: read-out: EC50 (concentration of the ligand stimulus that results in 50% maximal activation), NF-κB luciferase induction, stimulated for 16 hours, ODN titrated between 10 μM and 2 nM, FIG. 6; for course of activity (EC50) curves with time: ODN with less stable diester linkages
T1 sequence (Q9EQU3 26-1032): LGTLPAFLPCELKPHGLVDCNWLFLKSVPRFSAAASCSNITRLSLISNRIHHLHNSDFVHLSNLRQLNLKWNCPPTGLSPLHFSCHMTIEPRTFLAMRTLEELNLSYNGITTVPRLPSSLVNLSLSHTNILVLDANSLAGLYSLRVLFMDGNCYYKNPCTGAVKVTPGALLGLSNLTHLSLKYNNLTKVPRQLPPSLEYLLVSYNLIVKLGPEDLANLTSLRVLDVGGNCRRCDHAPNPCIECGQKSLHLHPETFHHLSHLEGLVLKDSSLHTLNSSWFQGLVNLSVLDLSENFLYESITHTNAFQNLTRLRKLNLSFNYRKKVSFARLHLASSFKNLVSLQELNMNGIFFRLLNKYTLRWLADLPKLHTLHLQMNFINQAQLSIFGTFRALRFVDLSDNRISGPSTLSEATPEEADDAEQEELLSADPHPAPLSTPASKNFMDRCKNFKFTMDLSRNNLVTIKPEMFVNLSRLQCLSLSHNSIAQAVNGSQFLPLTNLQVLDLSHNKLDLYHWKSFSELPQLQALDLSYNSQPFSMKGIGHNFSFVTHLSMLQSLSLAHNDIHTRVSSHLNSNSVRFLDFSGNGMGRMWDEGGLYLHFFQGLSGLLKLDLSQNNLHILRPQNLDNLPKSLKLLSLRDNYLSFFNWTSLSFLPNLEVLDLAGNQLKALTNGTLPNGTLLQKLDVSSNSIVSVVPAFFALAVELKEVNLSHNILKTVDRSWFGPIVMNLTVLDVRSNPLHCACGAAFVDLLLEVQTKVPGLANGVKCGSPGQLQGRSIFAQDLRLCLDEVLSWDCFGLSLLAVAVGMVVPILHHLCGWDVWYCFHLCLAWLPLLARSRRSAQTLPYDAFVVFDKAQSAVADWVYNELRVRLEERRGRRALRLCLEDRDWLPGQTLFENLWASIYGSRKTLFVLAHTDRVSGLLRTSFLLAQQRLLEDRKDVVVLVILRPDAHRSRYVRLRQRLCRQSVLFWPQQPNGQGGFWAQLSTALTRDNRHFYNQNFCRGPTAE
Experimental: (§1) Human 293 fibroblast cells stably transfected with murine TLR9 and an NF-κB-luciferase reporter were stimulated for 16 hours with the following fully phosphorothioated oligodeoxynucleotides (ODN):
(§2) Concentration of the stimulus was titrated between 10 μM and 2 nM. […] EC50 is defined as the concentration of the ligand stimulus that results in 50% maximal activation.
(§3) A family of stimulation curves was determined at various times of assay incubation between 1 and 24 hours. The EC50 was determined for each ligand at each time point.

murine TLR9 [2] = molecular target: T1, murine TLR9
Experimental: as §1, §2, §3

hTLR9 = molecular target: T2, hTLR9 (Homo sapiens, UniProt Q9NR96); test: 293 fibroblasts transiently transfected with hTLR9, NF-κB-luc readout or IL-8 ELISA; format: cell-based; settings: CpG-ODN 2006 2 μM, LPS 100 ng/ml; 8 h luciferase, 48 h IL-8; FIG. 1
T2 construct: expressed in transfected cells; host or cells: human 293 fibroblasts (ATCC CRL-1573), transient transfection by the calcium phosphate method
T2 sequence (Q9NR96 26-1032): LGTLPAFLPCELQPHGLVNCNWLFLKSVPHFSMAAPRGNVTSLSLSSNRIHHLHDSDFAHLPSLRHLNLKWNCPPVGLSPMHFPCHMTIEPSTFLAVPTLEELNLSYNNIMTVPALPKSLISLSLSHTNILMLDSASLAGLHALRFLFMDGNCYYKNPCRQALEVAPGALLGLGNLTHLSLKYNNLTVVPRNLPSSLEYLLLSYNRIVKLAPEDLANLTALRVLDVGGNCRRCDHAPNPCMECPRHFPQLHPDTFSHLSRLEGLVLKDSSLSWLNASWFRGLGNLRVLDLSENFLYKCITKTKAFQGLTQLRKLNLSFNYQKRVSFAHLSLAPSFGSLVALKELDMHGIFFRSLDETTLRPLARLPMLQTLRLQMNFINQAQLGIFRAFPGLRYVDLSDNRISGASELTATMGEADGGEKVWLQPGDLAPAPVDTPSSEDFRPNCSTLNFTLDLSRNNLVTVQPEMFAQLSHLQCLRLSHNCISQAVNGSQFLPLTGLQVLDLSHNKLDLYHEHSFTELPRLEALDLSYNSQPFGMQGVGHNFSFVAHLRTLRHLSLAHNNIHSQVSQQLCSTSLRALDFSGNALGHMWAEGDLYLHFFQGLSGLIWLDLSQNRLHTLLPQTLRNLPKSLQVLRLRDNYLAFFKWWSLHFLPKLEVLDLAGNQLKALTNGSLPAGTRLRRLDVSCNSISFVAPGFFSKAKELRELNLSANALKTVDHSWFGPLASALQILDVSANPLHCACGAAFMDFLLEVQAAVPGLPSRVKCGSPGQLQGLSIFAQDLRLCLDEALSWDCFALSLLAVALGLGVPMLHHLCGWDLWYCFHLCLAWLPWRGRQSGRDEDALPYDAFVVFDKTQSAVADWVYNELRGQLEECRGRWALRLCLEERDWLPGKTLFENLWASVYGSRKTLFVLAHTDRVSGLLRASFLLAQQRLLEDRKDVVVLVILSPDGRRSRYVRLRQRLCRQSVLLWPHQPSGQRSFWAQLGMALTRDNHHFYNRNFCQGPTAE
Text: Methods for cloning murine and human TLR9 have been described in pending U.S. patent application Ser. No. 09/954,987 and corresponding published PCT application PCT/US01/29229, both filed Sep. 17, 2001, the contents of which are incorporated by reference. Human TLR9 cDNA and murine TLR9 cDNA in pT-Adv vector (from Clonetech) were individually cloned into the expression vector pcDNA3.1(−) from Invitrogen using the EcoRI site. Utilizing a “gain of function” assay it was possible to reconstitute human TLR9 (hTLR9) and murine TLR9 (mTLR9) signaling in CpG-DNA non-responsive human 293 fibroblasts (ATCC, CRL-1573). The expression vectors mentioned above were transfected into 293 fibroblast cells using the calcium phosphate method.
Since NF-κB activation is central to the IL-1/TLR signal transduction pathway (Medzhitov R et al. (1998) Mol Cell 2:253-258 (1998); Muzio M et al. (1998) J Exp Med 187:2097-101), cells were transfected with hTLR9 or co-transfected with hTLR9 and an NF-κB-driven luciferase reporter construct. […] After stimulus with CpG-ODN (2006, 2 μM, […], SEQ ID NO:15), GpC-ODN (2006-GC, 2 μM, […], SEQ ID NO:16), LPS (100 ng/ml) or media, NF-κB activation by luciferase readout (8 h, FIG. 1A) or IL-8 production by ELISA (48 h, FIG. 1B) were monitored. […]

[3] = assay incubation between 1 and 24 hours, FIG. 7

Substance: T*C*C*A*T*G*A*C*G*T*T*T*T*T (dT*dC*dC*dA*dT*dG*dA*dC*dG*dT*dT*dT*dT*dT) [ODN 5897]
- EC50 (murine TLR9 [1]): 1220 nM

Substance: T*C*C*A*T*G*A*C*G*T*T*T*T*T*G*A*T*G*T*T (TCCATGACGTTTTTGATGTT; chemistry not given here) [ODN 5890]
- maximal activity (maximal fold induction) versus time (murine TLR9 [2]): less efficient at delivering high activity
- affinity of ligand/receptor interaction from EC50 versus time curves (murine TLR9 [1]; [3]): higher affinity
- EC50 (murine TLR9 [1]): 42 nM

Substance: T*C*C*A*T*G*A*C_G_T*T*T*T*T*G*A*T_G*T*T [ODN 5902]
- course of activity (EC50) curves with time (murine TLR9 [1]; [3]): turn upward with time

Substance: T*C*G*T*C*G*T*T*T*T*G*T*C*G*T*T*T*T*G*T*C*G*T*T [ODN 2006]
- response of cells expressing hTLR9 (NF-κB activation by luciferase readout, IL-8 production by ELISA) (hTLR9): responded

Substance: T*C*G*T*C*G*T*T*T*T_G_T_C_G_T*T*T*T*G*T*C*G*T*T [ODN 5497]
- course of activity (EC50) curves with time (murine TLR9 [1]; [3]): turn upward with time

Substance: T*C_G*T*C_G*T*T*T*T_G*T*C_G*T*T*T*T*G*T*C_G*T*T [ODN 5746]
- course of activity (EC50) curves with time (murine TLR9 [1]; [3]): turn upward with time

Substance: lipopolysaccharide [LPS]
- response of cells expressing hTLR9 (NF-κB activation by luciferase readout, IL-8 production by ELISA) (hTLR9): not
